Each structure is given as a SMILES string. Square brackets hold non-standard residues; d marks the D form. Peptide text beside a SMILES is read from it. Gly(N-(CH2)6NH2) = NCCCCCCNCC(=O)O; Nspe = C[C@H](NCC(=O)O)c1ccccc1; NhArg = N=C(N)NCCCCNCC(=O)O; NPentylGly = CCCCCNCC(=O)O; Nphe = O=C(O)CNCc1ccccc1; Nlys = NCCCCNCC(=O)O

The nature of data set [1]: Cytotoxicity assay with HepG2 (alamarBlue). The data set is classed as cell-based, human. The conditions noted are these: human, HepG2 cells. On the procedure: (§1) The activity of our peptoid library was assessed against both bacterial and mammalian cells to gain a broader understanding of the factors that lead to effective and selective antimicrobial peptoids. We screened for broad-spectrum antibacterial activity against Gram-negative (Escherichia coli and Pseudomonas aeruginosa) and Gram-positive (Staphylococcus aureus and S. epidermidis) bacteria. The toxicity of the library was also assessed against two mammalian cell lines; HaCaT spontaneously transformed aneuploid keratinocytes were employed to model toxicity against human skin cells and HepG2, a cell line derived from a human liver carcinoma, were used as a study on polarised human hepatocytes. Detailed methods for these assays can be found in the ESI. ^‡ […]
(§2) Please note – ED50, the median effective dose, was defined as the dose that kills 50% of cells.
(§3) Cytotoxicity analyses were performed in 96-well plates (Costar, Fisher Scientific) using alamarBlue® (Invitrogen) for cell viability detection using a modified protocol as described previously. HepG2 or HaCaT cells were subcultured at 37 °C, 5% CO2 in DMEM high glucose supplemented with heat-inactivated foetal bovine sera (FBS, 10%; Biosera Ltd) and penicillin/streptomycin (P/S, 1%). Cells were counted using a Neubauer Improved Haemocytometer. HepG2 cells were seeded 1 day prior to treatment in 96 well plates at a concentration of 2 × 10^5 cells per mL in 100 μL of medium (2 × 10^4 cells per well). Then cells were pre-incubated with the compounds in triplicate in a dilution series in triplicate from 2–100 μM (5 mM stock solutions in DMSO diluted from 100 μM to 3 μM; untreated cells with DMSO as a negative control) in 50 μl of the media for 1 hour. Afterwards, 40 μL were removed from each well before the addition of 90 μL of the media, followed by incubation for 24 hours at 37 °C, 5% CO2. Then, 10 μL of alamarBlue® (Invitrogen) was added to each well before a 2 hour incubation prior to assessing cell viability using a fluorescent plate reader (Biotek; Ex 560 nm/Em 600 nm). All data were measured in triplicate on a minimum of two occasions to ensure a robust data set was collected. The ED50 values were calculated from the dose response results achieved from the serial dilutions.
Cytotoxicity assay with HepG2
Cytotoxicity analyses were performed in 96-well plates (Costar, Fisher Scientific) using alamarBlue® (Invitrogen) for cell viability detection using a modified protocol as previously described. The HepG2 cells were grown at 37 °C, 5% CO2 in DMEM high glucose supplemented with heat-inactivated foetal bovine sera (FBS, 10%; Biosera Ltd) and penicillin/streptomycin (P/S, 1%). Cells were counted using a Neubauer Improved Haemocytometer. HepG2 cells were seeded 1 day prior to treatment in 96 well plates at a concentration of 2x10^5 cells/mL in 100 µL of medium (2x10^4 cells/well). Then cells were pre-incubated with the compounds in triplicate (5 mM stock solutions in DMSO diluted from 100 µM to 3 µM; untreated cells with DMSO as a negative control) in 50 µl of the media for 1 hour.
Afterwards, 40 µL were removed from each well before the addition of 90 µL of the media, followed by incubation for 24 hours at 37 °C, 5% CO2. Then, 10 µL of alamarBlue® (Invitrogen) was added to each well before a 2 hour incubation prior to assessing cell viability using a fluorescent plate reader (Biotek; Ex 560 nm / Em 600 nm). All data was measured in triplicate on a minimum of two occasions to ensure a robust data set was collected. The ED50 values were calculated from the dose response results achieved from the serial dilutions. […]
5% CO2 in DMEM high glucose supplemented with heat-inactivated foetal bovine sera (FBS, 10%; Biosera Ltd) and penicillin/streptomycin (P/S, 1%). Cells were counted using a Neubauer […]
Empty wells were filled with 100 µL PBS. After 24 hours, cells were incubated with the compounds in a dilution series in triplicate from 2 – 100 µM (5 mM stock solutions in DMSO […]

Data set [2] in a line: Skin cell toxicity assay with HaCaT (alamarBlue). The data set is classed as cell-based, human. Conditions: human, HaCaT cells (keratinocytes). On the procedure: as §1, §2
as §3, with “dilutions. […]” for “dilutions.”
Cells were counted using a Neubauer Improved
Haemocytometer. […]
µM to 3 µM; untreated cells with DMSO as a negative control) in 50 µl of the media for 1 hour.
Afterwards, 40 µL were removed from each well before the addition of 90 µL of the media, followed by incubation for 24 hours at 37 °C, 5% CO2. Then, 10 µL of alamarBlue® (Invitrogen) was added to each well before a 2 hour incubation prior to assessing cell viability using a fluorescent plate reader (Biotek; Ex 560 nm / Em 600 nm). All data was measured in triplicate on a minimum of two occasions to ensure a robust data set was collected. The ED50 values were calculated from the dose response results achieved from the serial dilutions.
Skin Cell Toxicity assay with HaCaT […]
alamarBlue® (Invitrogen) for cell viability detection. HaCaT cells were subcultured at 37 °C, 5% CO2 in DMEM high glucose supplemented with heat-inactivated foetal bovine sera (FBS, 10%; Biosera Ltd) and penicillin/streptomycin (P/S, 1%). Cells were counted using a Neubauer Improved Haemocytometer. HaCaT cells were seeded in the plates 24 hours prior to treatment in 96 well plates at a concentration of 2x10^5 cells/mL in 100 µL of medium (2x10^4 cells/well).
Empty wells were filled with 100 µL PBS. After 24 hours, cells were incubated with the compounds in a dilution series in triplicate from 2 – 100 µM (5 mM stock solutions in DMSO diluted from 100 µM to 3 µM; Amphotericin B was used as a positive control and untreated cells with DMSO as a negative control) in 50 µL of the media for 1 hour. Afterwards, 40 µl was removed from each well, 90 µL of medium was added to each well and the cells incubated for 24 hours at 37 °C, 5% CO2. 10 µL of alamarBlue® (Invitrogen) was added to each well before […]

For `NCCCCNCC(=O)N(CC(=O)N(CC(=O)N(CCCCN)CC(=O)N(CC(=O)N(CC(=O)N(CCCCN)CC(=O)N(CC(=O)N(CC(=O)N(CCCCN)CC(=O)N(CC(=O)N(CC(N)=O)Cc1cccc(F)c1)Cc1cccc(F)c1)Cc1cccc(F)c1)Cc1cccc(F)c1)Cc1cccc(F)c1)Cc1cccc(F)c1)Cc1cccc(F)c1)Cc1cccc(F)c1` [Peptoid 24, (NLysNmfbNmfb)4], the CC50 at 24 h in data set [1] (ED50 HepG2) was 17 µM; in data set [2] (ED50 HaCaT), 25 µM.
On the same counts, the results for `NCCCCCCNCC(=O)N(CC(=O)N(CC(=O)N(CCCCCCN)CC(=O)N(CC(=O)N(CC(=O)N(CCCCCCN)CC(=O)N(CC(=O)N(CC(=O)N(CCCCCCN)CC(=O)N(CC(=O)N(CC(N)=O)Cc1ccccc1)Cc1ccccc1)Cc1ccccc1)Cc1ccccc1)Cc1ccccc1)Cc1ccccc1)Cc1ccccc1)Cc1ccccc1` [Peptoid 1, (NahNpheNphe)4] (H-[Gly(N-(CH2)6NH2)][Nphe][Nphe][Gly(N-(CH2)6NH2)][Nphe][Nphe][Gly(N-(CH2)6NH2)][Nphe][Nphe][Gly(N-(CH2)6NH2)][Nphe][Nphe]-NH2) are 100 µM and 100 µM.
With `C[C@@H](c1ccccc1)N(CC(N)=O)C(=O)CN(C(=O)CN(CCCCN)C(=O)CN(Cc1ccc(F)cc1)C(=O)CN(Cc1ccc(F)cc1)C(=O)CN(CCCCN)C(=O)CN(C(=O)CN(C(=O)CNCCCCN)[C@@H](C)c1ccccc1)[C@@H](C)c1ccccc1)[C@@H](C)c1ccccc1` [Peptoid 29, (NLysNspeNspe)(NLysNpfbNpfb)(NLysNspeNspe)], the CC50 at 24 h in data set [1] (dose that kills 50% of cells, 2–100 μM, 1 h with compound then 24 h, alamarBlue, read-out: ED50 HepG2) came to 43 µM; in data set [2] (dose that kills 50% of cells, 2–100 μM, 1 h with compound then 24 h, alamarBlue, read-out: ED50 HaCaT), 65 µM.
As to `CCCCCNCC(=O)N(CC(=O)N(CC(=O)N(CCCCNC(=N)N)CC(=O)N(CC(=O)N(CC(=O)N(CCCCC)CC(=O)N(CC(=O)N(CC(=O)N(CCCCNC(=N)N)CC(=O)N(CC(=O)N(CC(N)=O)[C@@H](C)c1ccccc1)[C@@H](C)c1ccccc1)[C@@H](C)c1ccccc1)[C@@H](C)c1ccccc1)[C@@H](C)c1ccccc1)[C@@H](C)c1ccccc1)[C@@H](C)c1ccccc1)[C@@H](C)c1ccccc1` [Peptoid 40, [(NamyNspeNspe)(NhArgNspeNspe)]2] (H-[NPentylGly][Nspe][Nspe][NhArg][Nspe][Nspe][NPentylGly][Nspe][Nspe][NhArg][Nspe][Nspe]-NH2), the results for the CC50 at 24 h in data set [1] (ED50 HepG2) and in data set [2] (ED50 HaCaT) were 24 µM and 31 µM, respectively.
On the same counts, the results for `C[C@@H](c1ccccc1)N(CC(N)=O)C(=O)CN(Cc1ccc(F)cc1)C(=O)CN(CCCCN)C(=O)CN(C(=O)CN(Cc1ccc(F)cc1)C(=O)CN(CCCCN)C(=O)CN(C(=O)CN(Cc1ccc(F)cc1)C(=O)CN(CCCCN)C(=O)CN(C(=O)CN(Cc1ccc(F)cc1)C(=O)CNCCCCN)[C@@H](C)c1ccccc1)[C@@H](C)c1ccccc1)[C@@H](C)c1ccccc1` [Peptoid 26, (NLysNpfbNspe)4] are 26 µM and 20 µM.
`NCCCCNCC(=O)N(CC(=O)N(CC(=O)N(CCCCN)CC(=O)N(CC(=O)N(CC(=O)N(CCCCN)CC(=O)N(CC(=O)N(CC(N)=O)Cc1ccccc1)Cc1ccccc1)Cc1ccccc1)Cc1ccccc1)Cc1ccccc1)Cc1ccccc1` [Peptoid 5, (NLysNpheNphe)3]: the CC50 at 24 h in data set [1] (ED50 HepG2) and in data set [2] (ED50 HaCaT) was 100 µM each time.
Regarding `NCCCCNCC(=O)N(CC(=O)N(CC(=O)N(CCCCN)CC(=O)N(CC(=O)N(CC(=O)N(CCCCN)CC(=O)N(CC(=O)N(CC(=O)N(CCCCN)CC(=O)N(CC(=O)N(CC(N)=O)Cc1ccccc1)Cc1ccccc1)Cc1ccccc1)Cc1ccccc1)Cc1ccccc1)Cc1ccccc1)Cc1ccccc1)Cc1ccccc1` [Peptoid 4, (NLysNpheNphe)4] (H-[Nlys][Nphe][Nphe][Nlys][Nphe][Nphe][Nlys][Nphe][Nphe][Nlys][Nphe][Nphe]-NH2), the CC50 at 24 h was 100 µM in data set [1] (ED50 HepG2) and 36 µM in data set [2] (ED50 HaCaT).

The values are drawn from PMC6072100, “Exploring the links between peptoid antibacterial activity and toxicity” (MedChemComm, 2017).
